Columns and labels:
CXCR4 = target: T1, CXCR4 (Homo sapiens, UniProt P61073); experiment: CXCL12-mediated (CXCR4) chemotaxis of CCRF-CEM cells, specificity; assay type: cell-based; conditions: 3 nM CXCL12; 2 μM CCR4 antagonists (1000 times higher than IC50); n=2
T1 construct: Expression of chemokine receptors CCR4 and CXCR4 by CCRF-CEM cells; endogenous in cells; host or cells: CCRF-CEM
Procedure: FIG. 2: Assessment of the specificity of CCR4 antagonists. (A) Expression of chemokine receptors CCR4 and CXCR4 by CCRF-CEM cells.
Cell migration was measured by chemotaxis through a 5 μm pore polycarbonate filter in 24-well transwell chambers (Costar, Cambridge, Mass.). Chemokines (R&D systems) were placed in lower chambers in 600 μl RPMI/1% FCS medium and cells were placed in upper chambers in 100 μl medium. After 2 h incubation at 37° C., cells in the lower chamber were recovered and counted with a FACSCalibur (Becton Dickinson, Mountain View, Calif.). Preliminary chemokine titration experiments established optimal doses for chemotaxis: (1) for CCRF-CEM cells, 6 nM CCL22 and 3 nM CCL17 or CXCL12; (2) for Tregs and Th2 cells, 1.2 nM CCL22 or CCL17. To assess CCR4 antagonism, candidate antagonist compounds (10 nM) were mixed directly with chemokines as indicated. Percent inhibition of chemotaxis by CCR4 antagonists was calculated in relation to controls treated with solvent (DMSO) alone as follows: ([no. cells migrated in the presence of DMSO—no. cells migrated in the presence of antagonist]/no. cells migrated in the presence of DMSO)×100. To measure IC50 values, graded doses of antagonists were added to a constant concentration of CCL22.
CCRF-CEM also expresses another chemokine receptor, CXCR4 (FIG. 2A), which allowed the specificity of the CCR4 antagonists to be tested. With the exception of one antagonist, the compounds had no effect on either CXCR4-mediated migration (FIG. 2B) or cell viability (data not shown), even at concentrations 1000 times higher than their IC50 values (˜2 μM)

[1] = system: CD4+CD25+ regulatory T cells; experiment: Cell viability of Tregs; assay type: cell-based, human
CCR4 = target: T2, CCR4 (Mus musculus, UniProt P51680); experiment: CCR4-mediated migration of mouse cells in vitro; assay type: cell-based; conditions: data not shown
T2 construct: endogenous in cells
T2 sequence (P51680 1-360): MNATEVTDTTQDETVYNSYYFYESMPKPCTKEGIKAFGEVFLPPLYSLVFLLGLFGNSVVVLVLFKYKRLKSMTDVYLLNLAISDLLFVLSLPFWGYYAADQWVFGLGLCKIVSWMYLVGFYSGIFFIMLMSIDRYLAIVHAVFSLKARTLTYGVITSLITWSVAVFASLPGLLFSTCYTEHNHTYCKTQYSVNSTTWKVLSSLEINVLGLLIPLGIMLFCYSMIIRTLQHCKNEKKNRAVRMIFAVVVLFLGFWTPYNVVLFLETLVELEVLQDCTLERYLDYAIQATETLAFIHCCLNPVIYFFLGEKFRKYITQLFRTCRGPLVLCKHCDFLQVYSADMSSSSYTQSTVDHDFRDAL

[2] = system: PPD-reactive IFN-γ-secreting cells; experiment: T cell response (IFN-γ ELISPOT and CBA) in mice after MVA85A vaccination; assay type: in vivo, BALB/c mice; conditions: i.m., MVA85A plus ~2.5 μM antagonist, 6 days post vaccination, splenocytes, 20 μg/ml PPD; for frequency of PPD-reactive IFN-γ-secreting cells (ELISPOT): vs DMSO; for production of IFN-γ in PPD-stimulated cultures (supernatant, CBA): 18 h
[3] = system: HBsAg specific antibodies; experiment: Anti-HBsAg IgG ELISA after rHBsAg vaccination of mice; assay type: in vivo, BALB/c mice; conditions: 14 days after second vaccination
[4] = system: antibody response to the HBsAg; experiment: ELISA of sera of mice immunised with HBsAg in SP50 adjuvant at different concentrations (Example 6); assay type: in vivo, Balb/c mice; conditions: s.c., 0.5 micrograms HBsAg with SP50 at 1 millimolar, 100 micromolar or 10 micromolar, boost day 14, bled 14 days later, all concentrations
Text: FIG. 7: CCR4 antagonist SP50 (Compound VIII—AF-399/42016530—4-(1-benzofuran-2-ylcarbonyl)-1-[5-(benzylsulfanyl)-1,3,4-thiadiazol-2-yl]-3-hydroxy-5-(2-thienyl)-1,5-dihydro-2H-pyrrol-2-one. MW: 531.64. Formula: C26H17N3O4S3) enhances the immunogenicity of a vaccine in vivo. The graph in FIG. 7 depicts the results of an ELISA assay of sera of mice immunised with HBsAg in different concentrations of SP50 adjuvant or of HBsAg in DMSO (negative control) or of HBsAG in the commercially used vaccine composition Engerix™. […] Each line represents the mean of a group of 4 mice.
6 week old female Balb/c mice were used, and immunised with a recombinant Hepatitis B surface antigen (HBsAg) from Biospacific, 598 Horton St no 225, Emeryville Calif. 94608, Catalogue number J44050228 lot number 4475.
Groups of 4 mice were given 0.5 micrograms of HBsAg subcutaneously in 25 microlitres of saline with an equal volume of SP50 at concentrations of 1 millimolar, 100 micromolar or 10 micromolar. Controls received 0.5 micrograms of HBsAg plus 25 microlitres of DMSO (the vehicle used to dissolve the SP50). A second control group received a dose of the alum-adjuvanted commercial Hepatitis B vaccine “Engerix” containing 0.5 micrograms of HBsAg. 14 days later the mice were boosted in an identical fashion and they were bled out a further 14 days later. […]

T1 sequence (P61073 whole entry): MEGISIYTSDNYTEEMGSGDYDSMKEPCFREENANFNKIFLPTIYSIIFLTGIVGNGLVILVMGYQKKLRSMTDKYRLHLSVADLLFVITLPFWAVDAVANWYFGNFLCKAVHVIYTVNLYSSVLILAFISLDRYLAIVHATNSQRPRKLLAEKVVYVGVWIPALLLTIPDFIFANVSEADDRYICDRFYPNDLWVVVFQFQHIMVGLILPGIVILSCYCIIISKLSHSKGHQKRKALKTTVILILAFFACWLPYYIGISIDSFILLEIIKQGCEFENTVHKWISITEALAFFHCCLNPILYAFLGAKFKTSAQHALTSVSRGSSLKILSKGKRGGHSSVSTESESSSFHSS

SMILES | effect on CXCL12-mediated chemotaxis (CXCR4-mediated migration) of CCRF-CEM cells (CXCR4) | effect on cell viability [1] | inhibition of CCR4-mediated migration of mouse cells in vitro (CCR4) | frequency of PPD-reactive IFN-γ-secreting cells (ELISPOT) [2] | production of IFN-γ in PPD-stimulated cultures (supernatant, CBA) [2] | IgG subclass of anti-HBsAg IgG response [3] | titer of HBsAg specific antibodies (IgG, ELISA) ([3]; s.c., rHBsAg plus compound (~2.5 μM), vs DMSO) | antibody response to the HBsAg (ELISA of sera) [4]
O=C(CSc1nc(-c2ccccc2)c(-c2ccccc2)o1)Nc1ccc(S(=O)(=O)Nc2nccs2)cc1 [(XI)] | do not inhibit | None of the compounds affected cell viability | – | – | – | – | – | –
O=C(C1=C(O)C(=O)N(c2nnc(SCc3ccccc3Cl)s2)C1c1ccc(Cl)c(Cl)c1)c1cc2ccccc2o1 (stereo not shown) [(III)] | do not inhibit | None of the compounds affected cell viability | – | – | – | – | – | –
CCc1ccc(C2C(C(=O)c3cc4ccccc4o3)=C(O)C(=O)N2c2nnc(SCc3ccccc3F)s2)cc1 (stereo not shown) [(VI)] | do not inhibit | None of the compounds affected cell viability | – | – | – | – | – | –
O=C(C1=C(O)C(=O)N(c2nnc(SCc3ccc(Cl)cc3)s2)C1c1cccs1)c1cc2ccccc2o1 (stereo not shown) [(V)] | do not inhibit | None of the compounds affected cell viability | inhibit | significantly enhanced | significantly greater production | – | – | –
O=C(C1=C(O)C(=O)N(c2nnc(SCc3ccccc3)s2)C1c1cccs1)c1cc2ccccc2o1 (stereo not shown) [compound (VIII), 4-(1-benzofuran-2-ylcarbonyl)-1-[5-(benzylsulfanyl)-1,3,4-thiadiazol-2-yl]-3-hydroxy-5-(2-thienyl)-1,5-dihydro-2H-pyrrol-2-one] | do not inhibit | None of the compounds affected cell viability | inhibit | significantly enhanced | significantly greater production | predominantly of the IgG1 subtype | significantly enhanced the titer of HBsAg specific antibodies to a level similar to that of Engerix-B | greater than that to Engerix™

Source: patent US20110171261A1, “IMMUNOGENIC COMPOSITION” (priority 2008, published 2011)
